Reference: patent publication US4530923A, “N-acetamilide, N-(phenoxy-2-propanol)- and N-(phenylamino-2-propanol)-cyclicamines” (Egyt Gyogyszervegyeszeti Gyar, priority 1981, dated 1985)
Like-named read-outs stand apart in the source and are kept apart here.

How the values were obtained:
[1] = system: Auricle; assay: antiarrhythmic activity, electrical fibrillation threshold of auricle, anaesthetized cats; assay type: in vivo; settings: relative to quinidine = 1.00, from ED50 mg/kg, i.v., fibrillation threshold method
Protocol: (§1) The animals were anaesthetized with chloralose-urethane [50/30 mg/kg, i.v.]. The minimal strength of the current necessary to evoke the ventricular and auricular fibrillo-flutter, respectively, was followed by the method of Szekeres and al. [Szekeres, Mehes and Papp: Brit. J. Pharmacol. 17, 167 (1961); Szekeres and Papp: Experimental Cardiac Arrhythmias and Antiarrhythmic Drugs, Akademiai Kiado, Budapest, 1971; Szekeres and Papp: Experimental Cardiac Arrhythmias, Hdb. Exp. Pharmacol. XVI/3, 131, (1975).
(§2) The therapeutic indices related to the antiarrhythmic activity were calculated on the basis of the LD50 /ED50 ratio, where LD50 is the doses resulting in the death of the 50% of the animals (rats), and ED50 is the dosis provoking a 50% rise in the electrical threshold for fibrillation on rats. The LD50 values were determined on male Wistar rats weighing 180 to 220 g by the method of Litchfield and Wilcoxon [J. Pharmacol. Exp. Ther. 95, 49 (1949)].
(§3) ^+ Relative activity calculated from the antiarrhythmic activity
(§4) [ED50 mg/kg, i.v.] determined on cats by the fibrillation threshold

[2] = system: Ventricle; assay: antiarrhythmic activity, electrical fibrillation threshold of ventricle, anaesthetized cats; assay type: in vivo; settings: relative to quinidine = 1.00, from ED50 mg/kg, i.v., fibrillation threshold method
Protocol: as §1, §2, §3, §4

[3] = therapeutic index LD50:ED50 related to antiarrhythmic activity on auricle; assay type: in vivo, LD50: male Wistar rats; ED50: cats (b90) / rats (b59); settings: rat, in vivo, iv, ED50 i.v.
Protocol: as §1, §2
(§5) The i.v. and p.os LD50 values were determined on rats.

[4] = therapeutic index LD50:ED50 related to antiarrhythmic activity on ventricle; assay type: in vivo, LD50: male Wistar rats; ED50: cats (b90) / rats (b59); settings: rat, in vivo, iv; LD50 p.os rats; ED50 i.v.
Protocol: as §1, §2, §5

[5] = system: Ventricle; assay: as above; assay type: in vivo, LD50: male Wistar rats; ED50: cats (b90) / rats (b59); settings: for Ventricle: Therapeutic index LD50:ED50 /i.v.//i.v./: LD50 i.v. rats
Protocol: as §1, §2, §5

[6] = system: right auricle; assay: heartelectrophysiological test on isolated rabbit heart preparation, right auricle; settings: Oryctolagus cuniculus, percentage of the original values, read-out: Spontaneous frequency /right auricle/; for inhibition at 0.2 µg/mL: 0.2 mg/l
[7] = system: left auricle; assay: heartelectrophysiological test on isolated rabbit heart preparation, left auricle; settings: Oryctolagus cuniculus, percentage of the original values; for activation at 0.2 µg/mL: 0.2 mg/l; for activation at 0.5 µg/mL: 0.5 mg/l; for activation at 5 µg/mL: 5 mg/l
[8] = system: papillary muscle; assay: heartelectrophysiological test on isolated rabbit heart preparation, papillary muscle; settings: Oryctolagus cuniculus, percentage of the original values; for activation at 0.2 µg/mL: 0.2 mg/l; for activation at 0.5 µg/mL: 0.5 mg/l; for activation at 5 µg/mL: 5 mg/l
[9] = system: isolated rabbit heart preparation; assay: heartelectrophysiological methods on an isolated rabbit heart preparation (summary)
Excerpt: The compounds of Examples 5, 6 and 7, tested by heartelectrophysiological methods on an isolated rabbit heart preparation decrease the spontaneous frequency of right ventricle, increase the electric stimulus threshold, prolong the effective refractory period and also the time of stimulus conduction. The data referring hereto are given in Table II, in the percentage of the original values.

[10] = system: dogs; assay: haemodynamics in dogs anaesthetized with nembutal; assay type: in vivo; settings: nembutal anaesthesia, 0.5 to 2 mg/kg i.v.
Protocol: On dogs anaesthetized with nembutal (35 mg/kg, i.v.) in an i.v. dosis of 0.5 to 2 mg/kg the compounds slightly decrease the arterial blood pressure. The compounds of Examples 5 and 6 decrease the coronary resistance, improve the oxygenization of the heart muscle, increase the blood flow of the artery femoralis, and the compound of Example 5 increases also the blood flow of arteria carotis.

[11] = system: Auricle; assay: therapeutic index LD50:ED50 related to antiarrhythmic activity on auricle; assay type: in vivo, LD50: male Wistar rats; ED50: cats (b90) / rats (b59)
Protocol: as §1, §2, §5

[12] = system: nervus ischiadicus of frog; assay: local anaesthetic effect on action potential of nervus ischiadicus of frog
[13] = system: cardiac rhythm disturbances; settings: cited from earlier work
[14] = LD50 i.v. rats, read-out: Auricle: Therapeutic index LD50:ED50 /i.v.//i.v./
[15] = LD50 p.os rats, read-out: Auricle: Therapeutic index LD50:ED50 /p.os//i.v./
[16] = read-out: Effective refractory period /left auricle/
[17] = read-out: Electrical threshold /left auricle/
[18] = read-out: Time of the stimulus-conduction /left auricle/
[19] = read-out: Effective refractory period /papillary muscle/
[20] = read-out: Electrical threshold /papillary muscle/
[21] = ventricle (from Table I), versus quinidine

SMILES	Auricle: Relative activity [1]	Ventricle: Relative activity [2]	selectivity ratio [3, 14]	selectivity ratio [3, 15]	selectivity ratio [4]	Ventricle: Therapeutic index LD50:ED50 /i.v.//i.v./ [5]	inhibition at 0.2 µg/mL [6]	activation at 0.2 µg/mL [7, 16]	activation at 0.2 µg/mL [7, 17]	activation at 0.2 µg/mL [7, 18]	activation at 0.2 µg/mL [8, 19]	activation at 0.2 µg/mL [8, 20]	effective refractory period (in words) [9]	electric stimulus threshold (in words) [9]	spontaneous frequency of right ventricle (in words) [9]	time of stimulus conduction (in words) [9]	blood flow of the artery femoralis [10]	coronary resistance [10]	oxygenization of the heart muscle [10]	further results
Cc1cccc(C)c1OCC(O)CN1CCCCCC1 (stereo not shown) [Example 5, 1-(2,6-dimethylphenoxy)-3-hexamethyleneimino-propanol-2]	7.14	8.04	13.3	189	110	7.7	4 ± 2%	10%	24%	38%	9%	46%	prolong	increase	decrease	prolong	increase	decrease	improve	blood flow of arteria carotis [10]: increases
Cc1cccc(C)c1OCC(O)CN1CCCCCCC1 (stereo not shown) [Example 6, 1-(2,6-dimethylphenoxy)-3-heptamethyleneimino-propanol-2]	12.50	2.80	23.9	1960	229	2.8	7 ± 1%	3%	19%	15%	4%	9%	prolong	increase	decrease	prolong	increase	decrease	improve	therapeutic index related to the supraventricular activity (in words) ([11]; among the tested compounds): most preferable therapeutic index; therapeutic index related to supraventricular activity (i.v. toxicity), times higher than that of quinidine ([11]; i.v. LD50 / i.v. ED50, versus quinidine): about 1.8 times; therapeutic index related to supraventricular activity (per os toxicity), times higher than that of quinidine ([11]; per os LD50 / i.v. ED50, versus quinidine): ~7 times; quotient per os LD50 / i.v. ED50, times higher than that of quinidine [5, 21]: about 1.6 times; local anaesthetic effect (in words) [12]: strong local anaesthetic effect; local anaesthetic effect, times stronger than that of lidocaine ([12]; versus lidocaine): 2.7 times
Cc1cccc(C)c1NCC(O)CN1CCCCCC1 (stereo not shown) [Example 7, 1-hexamethyleneimino-3-(2,6-dimethylanilino)propanol-2]	8.54	7.85	20.7	439	209	9.9	–	–	–	–	–	–	prolong	increase	decrease	prolong	–	–	–	quotient i.v. LD50 / i.v. ED50, times higher than that of quinidine [5, 21]: about 1.4 times; inhibition at 0.5 µg/mL ([6]; 0.5 mg/l): 9 ± 1%; activation at 0.5 µg/mL [7, 16]: 11%; activation at 0.5 µg/mL [7, 17]: 25%; activation at 0.5 µg/mL [7, 18]: 28%; activation at 0.5 µg/mL [8, 19]: 10%; activation at 0.5 µg/mL [8, 20]: 29%
C=C[C@H]1C[N@@]2CC[C@H]1C[C@@H]2[C@@H](O)c1ccnc2ccc(OC)cc12 [Quinidine, reference compound]	1.00	1.00	13.4	280	145	6.9	–	–	–	–	–	–	–	–	–	–	–	–	–	inhibition at 5 µg/mL ([6]; 5 mg/l): 12 ± 1%; activation at 5 µg/mL [7, 16]: 32%; activation at 5 µg/mL [7, 17]: 120%; activation at 5 µg/mL [7, 18]: 90%; activation at 5 µg/mL [8, 19]: 55%; activation at 5 µg/mL [8, 20]: 56%; effectiveness in cardiac rhythm disturbances ([13]; Br. Heart J. 38, 381 (1976)): effective primarily in the treatment of arrhythmia, auricular flutter, fibrillation and paroxysmal tachycardia; toxic side-effects ([13]; background literature): induce subjective hyperaesthesia, create vision problems, headache and nausea, and give rise to grave asthmatic symptoms
